Here are results for 43 compounds from ChEMBL document CHEMBL1144266, “Synthesis and biological evaluation of 3-benzyl-1-methyl- and 1-methyl-3-phenyl-isothioureas as potential inhibitors of iNOS” (2005).

SMILES strings stand for the structures.

What all share (format): functional, Mus musculus
The subject of assay [1] is J774.A1. The experiment in a line: Percent inhibition of nitrite release in lipopolysaccharide (LPS) treated J774.A1 macrophage cell lines at concentration of 1E-6M.
Assay [2] deals with J774.A1. In words: Percent inhibition of nitrite release in lipopolysaccharide (LPS) treated J774.A1 macrophage cell lines at concentration of 1E-3 M.
Assay [3] relates to J774.A1. The experiment in a line: Percent inhibition of nitrite release in lipopolysaccharide (LPS) treated J774.A1 macrophage cell lines at concentration of 1E-5M.
The subject of assay [4] is J774.A1. The experiment in a line: Percent inhibition of nitrite release in lipopolysaccharide (LPS) treated J774.A1 macrophage cell lines at concentration of 1E-8M.
The test system of assay [5] is J774.A1. In words: Percent inhibition of nitrite release in lipopolysaccharide (LPS) treated J774.A1 macrophage cell lines at concentration of 1E-7M.

Turning to `C/N=C(/Nc1ccc(C)cc1)SC(C)C`, the values for the Inhibition in the assay with J774.A1 [1], with J774.A1 [2] and with J774.A1 [3] were 39.8%, 73.14% and 28.11%, respectively.

With `CCS/C(=N\C)NCc1ccccc1`, the Inhibition is -23.65% with J774.A1 [1], -7.28% in the assay with J774.A1 [4], -2.41% in the assay on J774.A1 [5] and -26.84% with J774.A1 [3].

With `CCCS/C(=N\C)Nc1cccc(F)c1`, the Inhibition is 7% in the assay with J774.A1 [1], 53.91% with J774.A1 [2] and 11.11% in the assay with J774.A1 [3].

With `CCCS/C(=N\C)Nc1ccccc1`, the Inhibition in the assay on J774.A1 [1] is given as 4.65%; in the assay on J774.A1 [2], 65.78%; in the assay with J774.A1 [3], 15.7%.

Consider `CN/C(=N\c1cccc(C)c1)SC`, for which the Inhibition with J774.A1 [1] is listed as 7.03%; in the assay with J774.A1 [2], 75%; in the assay with J774.A1 [3] it was 15.34%.

On to `CCS/C(=N\C)Nc1cccc(F)c1`, for which the Inhibition in the assay on J774.A1 [1] came out at 6.23%; with J774.A1 [2], 59.45%; in the assay with J774.A1 [3], 10.21%.

In the case of `CCS/C(=N\C)Nc1cccc(Cl)c1`, the Inhibition is listed as 3.44% with J774.A1 [1], 41.56% in the assay with J774.A1 [2] and 11.56% in the assay on J774.A1 [3].

On to `C/N=C(/Nc1cccc(F)c1)SC(C)C`, for which the Inhibition in the assay with J774.A1 [1] was determined as 4.23%; in the assay on J774.A1 [2] it was 66.98%; with J774.A1 [3] it was 10.04%.

On to `CN/C(=N/Cc1ccccc1)SC`, for which the Inhibition is reported as -9.54% in the assay with J774.A1 [1], -2.65% with J774.A1 [4], -5.96% in the assay on J774.A1 [5] and -54.53% in the assay on J774.A1 [3].

Consider `COC(=O)[C@@H](N)CCCNC(=N)N[N+](=O)[O-]` [L-NAME], for which the Inhibition in the assay on J774.A1 [1] is given as 12.8%; with J774.A1 [2], 69.49%; in the assay with J774.A1 [3] it was 20.37%.

Take `CN/C(=N\c1ccccc1C)SC`: the figures for the Inhibition in the assay with J774.A1 [1], in the assay with J774.A1 [2] and with J774.A1 [3] were 8.32%, 75.1% and 17.45%, respectively.

With `CN/C(=N\c1cccc(Cl)c1)SC`, the Inhibition in the assay with J774.A1 [1] is given as 4.06%; in the assay with J774.A1 [2] it was 45.38%; in the assay on J774.A1 [3], 12.33%.

With `CCCS/C(=N\C)Nc1ccccc1C`, the values for the Inhibition with J774.A1 [1], with J774.A1 [2] and in the assay with J774.A1 [3] were 8.12%, 81.01% and 11.45%, respectively.

`CN/C(=N\c1ccccc1)SC`: the Inhibition worked out at 5.1% with J774.A1 [1], 65% in the assay with J774.A1 [2] and 8.65% in the assay with J774.A1 [3].

`CCS/C(=N\C)Nc1ccccc1C`: the Inhibition was determined as 7.44% in the assay with J774.A1 [1], 65.21% with J774.A1 [2] and 15.33% in the assay on J774.A1 [3].

Consider `CCCS/C(=N\C)NCc1ccccc1`, for which the Inhibition is -33.71% in the assay on J774.A1 [1], -7.96% in the assay on J774.A1 [4], -31.36% in the assay on J774.A1 [5] and -39.58% in the assay with J774.A1 [3].

On to `CCS/C(=N\C)Nc1ccccc1F`, for which the Inhibition in the assay on J774.A1 [1] was 3.02%; in the assay on J774.A1 [2], 40.01%; in the assay on J774.A1 [3] it was 9.76%.

Turning to `CCCS/C(=N\C)Nc1ccc(F)cc1`, the figures for the Inhibition in the assay on J774.A1 [1], in the assay with J774.A1 [2] and in the assay on J774.A1 [3] were 4%, 53.45% and 10.67%, respectively.

Take `C/N=C(/Nc1cccc(C)c1)SC(C)C`: the Inhibition is 19.89% with J774.A1 [1], 68.77% with J774.A1 [2] and 18.55% in the assay with J774.A1 [3].

On to `C/N=C(/Nc1ccccc1Cl)SC(C)C`, for which the values for the Inhibition in the assay on J774.A1 [1], with J774.A1 [2] and in the assay on J774.A1 [3] were 3.21%, 16.21% and 8.69%, respectively.

Take `CCCS/C(=N\C)Nc1cccc(Cl)c1`: the Inhibition stood at 5.01% in the assay on J774.A1 [1], 58.45% with J774.A1 [2] and 9.34% in the assay with J774.A1 [3].

With `CCCS/C(=N\C)Nc1ccccc1F`, the Inhibition in the assay with J774.A1 [1] stood at 4.15%; in the assay on J774.A1 [2], 65.61%; in the assay with J774.A1 [3] it was 11.26%.

Regarding `C/N=C(/Nc1ccc(Cl)cc1)SC(C)C`, the Inhibition is listed as 8.21% in the assay with J774.A1 [1], 48.09% with J774.A1 [2] and 7.09% in the assay with J774.A1 [3].

For `CCCS/C(=N\C)Nc1ccc(Cl)cc1`, the Inhibition came to 1.1% with J774.A1 [1], 50.04% in the assay with J774.A1 [2] and 5.08% with J774.A1 [3].

With `CN/C(=N\c1ccc(Cl)cc1)SC`, the Inhibition in the assay on J774.A1 [1] amounted to 2.9%; in the assay with J774.A1 [2] it was 69.05%; in the assay on J774.A1 [3], 7.55%.

`CN/C(=N\c1ccccc1Cl)SC`: the results for the Inhibition in the assay on J774.A1 [1], in the assay with J774.A1 [2] and in the assay on J774.A1 [3] were 2.9%, 21.32% and 4.67%, respectively.

`CN/C(=N\c1ccc(C)cc1)SC`: the values for the Inhibition in the assay with J774.A1 [1], with J774.A1 [2] and in the assay on J774.A1 [3] were 4.67%, 67.8% and 18.1%, respectively.

As to `CCCS/C(=N\C)Nc1ccc(C)cc1`, the Inhibition in the assay with J774.A1 [1] worked out at 1.54%; with J774.A1 [2] it was 83.42%; with J774.A1 [3], 2.08%.

As to `CN/C(=N\c1cccc(F)c1)SC`, the Inhibition in the assay with J774.A1 [1] is 5.23%; in the assay with J774.A1 [2], 66.9%; with J774.A1 [3], 9.34%.

For the compound `C/N=C(/Nc1ccccc1C)SC(C)C`, the Inhibition in the assay on J774.A1 [1] worked out at 13.56%; in the assay on J774.A1 [2], 85.21%; with J774.A1 [3] it was 18.78%.

In the case of `CCS/C(=N\C)Nc1ccc(Cl)cc1`, the Inhibition in the assay with J774.A1 [1] was 0.5%; in the assay with J774.A1 [2] it was 54.05%; in the assay with J774.A1 [3], 10.45%.

For the compound `C/N=C(/Nc1ccc(F)cc1)SC(C)C`, the Inhibition in the assay on J774.A1 [1] is 4.76%; in the assay with J774.A1 [2] it was 61.45%; in the assay on J774.A1 [3], 9.03%.

For `CCS/C(=N\C)Nc1ccccc1`, the results for the Inhibition in the assay on J774.A1 [1], in the assay with J774.A1 [2] and in the assay on J774.A1 [3] were 1.67%, 76.76% and 2.67%, respectively.

Regarding `C/N=C(/Nc1ccccc1)SC(C)C`, the values for the Inhibition with J774.A1 [1], in the assay on J774.A1 [2] and in the assay on J774.A1 [3] were 13.21%, 81.5% and 19.75%, respectively.

`CCS/C(=N\C)Nc1ccc(C)cc1`: the Inhibition worked out at 0% in the assay with J774.A1 [1], 56.82% in the assay on J774.A1 [2] and 0% in the assay with J774.A1 [3].

With `CCS/C(=N\C)Nc1ccccc1Cl`, the Inhibition in the assay with J774.A1 [1] worked out at 2.9%; in the assay on J774.A1 [2], 19.55%; in the assay with J774.A1 [3], 10.21%.

Regarding `CCCS/C(=N\C)Nc1cccc(C)c1`, the results for the Inhibition in the assay with J774.A1 [1], in the assay on J774.A1 [2] and in the assay with J774.A1 [3] were 8.31%, 78.34% and 12.09%, respectively.

For `CCS/C(=N\C)Nc1ccc(F)cc1`, the Inhibition was determined as 5.98% in the assay with J774.A1 [1], 60.56% in the assay with J774.A1 [2] and 9.45% with J774.A1 [3].

For the compound `CN/C(=N\c1ccccc1F)SC`, the Inhibition is on record as 1.56% in the assay with J774.A1 [1], 52.45% in the assay on J774.A1 [2] and 6.01% with J774.A1 [3].

As for `CCS/C(=N\C)Nc1cccc(C)c1`, the Inhibition with J774.A1 [1] amounted to 6.79%; with J774.A1 [2], 81.03%; with J774.A1 [3], 14.02%.

On to `C/N=C(/Nc1ccccc1F)SC(C)C`, for which the figures for the Inhibition with J774.A1 [1], in the assay with J774.A1 [2] and with J774.A1 [3] were 2.76%, 67.71% and 9.91%, respectively.

Turning to `C/N=C(/Nc1cccc(Cl)c1)SC(C)C`, the values for the Inhibition in the assay with J774.A1 [1], in the assay with J774.A1 [2] and in the assay with J774.A1 [3] were 7.09%, 46.9% and 8%, respectively.

Consider `CCCS/C(=N\C)Nc1ccccc1Cl`, for which the Inhibition in the assay on J774.A1 [1] is 1.1%; with J774.A1 [2], 11.45%; with J774.A1 [3], 9.55%.
